PMC2736638 (Journal of medicinal chemistry, 2009)
Where “and” joins values, the source holds several entries; their conditions need not be identical. Equal values may be shown once. Entries after “also recorded” stand apart in the source; their conditions may differ.

Experiments:
[1] = test system: HIV-1IIIB; experiment: HIV-1IIIB replication inhibition assay in MT-2 lymphocytes; format: cell-based; settings: for TI = CC50/EC50: HIV-1IIIB, MT-2 cells
[2] = test system: HIV-1NL4-3; experiment: HIV-1NL4-3 replication inhibition assay in MT-4 lymphocytes; format: cell-based; settings: HIV-1NL4-3, MT-4 cells
[3] = Solubility; format: physicochemical; settings: qualitative
[4] = incubation time 0 min; 3 μM, 0.2 mg/mL human liver microsome, NADPH
[5] = in vitro; settings: human, microsomes, pH 7.4

## C=C(C)[C@@H]1CC[C@]2(C(=O)N3CCC(CCCC(=O)N4CCOCC4)CC3)CC[C@]3(C)[C@H](CC[C@@H]4[C@@]5(C)CC[C@H](OC(=O)CC(C)(C)C(=O)O)C(C)(C)[C@@H]5CC[C@]43C)[C@@H]12 [Compound 46, N’-[N-[3β-O-(3′,3′-Dimethylsuccinyl)-lup-20(29)-en-28-oyl]-4-piperidine-butanoyl]-morpholine]
[1]
  TI = CC50/EC50: 1,748

## C=C(C)[C@@H]1CC[C@]2(C(=O)NCCCCCCCC(=O)N[C@@H](CC(C)C)[C@H](O)CC(=O)O)CC[C@]3(C)[C@H](CC[C@@H]4[C@@]5(C)CC[C@H](O)C(C)(C)[C@@H]5CC[C@]43C)[C@@H]12 [Compound 3b, (3R,4S)-N’-[N-[3β-hydroxylup-20(29)-en-28-oyl]-8-aminooctanoyl]-4-amino-3-hydroxy-6-methylheptanoic acid]
[2]
  TI = CC50/EC50: > 112.4

## C=C(CBr)[C@@H]1CC[C@]2(C(=O)N[C@@H](CC(C)C)C(=O)O)CC[C@]3(C)[C@H](CC[C@@H]4[C@@]5(C)CC[C@H](OC(=O)CC(C)(C)C(=O)O)C(C)(C)[C@@H]5CC[C@]43C)[C@@H]12 [Compound 30, N-[3β-O-(3′,3′-Dimethylsuccinyl)-30-bromo-lup-20(29)-en-28-oyl]-leucine]
[1]
  TI = CC50/EC50: 3.0×10^3 and 3,022

## C=C(COCCN1CCOCC1)[C@@H]1CC[C@]2(C(=O)NCCCCCCCC(=O)O)CC[C@]3(C)[C@H](CC[C@@H]4[C@@]5(C)CC[C@H](O)C(C)(C)[C@@H]5CC[C@]43C)[C@@H]12 [Compound 20, N-[3β-Hydroxy-30-(2′-morpholinoethoxy)-lup-20(29)-en-28-oyl]-8-aminooctanoic acid]
[3]
  solubility: increase in the derivative’s solubility

## C=C(COCCN1CCOCC1)[C@@H]1CC[C@]2(C(=O)NCCCCCCCC(=O)NC)CC[C@]3(C)[C@H](CC[C@@H]4[C@@]5(C)CC[C@H](O)C(C)(C)[C@@H]5CC[C@]43C)[C@@H]12 [Compound 21]
[3]
  solubility: improved solubility; also recorded: good solubility

## C=C(C)[C@@H]1CC[C@]2(C(=O)N3CCC(CCCC(=O)NCCCN4CCOCC4)CC3)CC[C@]3(C)[C@H](CC[C@@H]4[C@@]5(C)CC[C@H](OC(=O)CC(C)(C)C(=O)O)C(C)(C)[C@@H]5CC[C@]43C)[C@@H]12 [Compound 48, N’-[N-[3β-O-(3′,3′-Dimethylsuccinyl)-lup-20(29)-en-28-oyl]-4-piperidine-butanoyl]-3-aminopropylmorpholine]
[1]
  TI = CC50/EC50: 3,087

## C=C(C)[C@@H]1CC[C@]2(C(=O)N3CCC(CCCC(=O)O)CC3)CC[C@]3(C)[C@H](CC[C@@H]4[C@@]5(C)CC[C@H](O)C(C)(C)[C@@H]5CC[C@]43C)[C@@H]12 [Compound 38, N-[3β-Hydroxy-lup-20(29)-en-28-oyl]-4-piperidine butyric acid]
[4]
  Persentage of Remaining Parent Compounds (X±SD)%: 100.0%
[5]
  half-life: ~2.08 h

## C=C(C)[C@@H]1CC[C@]2(C(=O)N3CCC(CCCC(=O)O)CC3)CC[C@]3(C)[C@H](CC[C@@H]4[C@@]5(C)CC[C@H](OC(=O)CC(C)(C)C(=O)O)C(C)(C)[C@@H]5CC[C@]43C)[C@@H]12 [Compound 39, N-[3β-O-(3′,3′-Dimethylsuccinyl)-lup-20(29)-en-28-oyl]-4-piperidine butyric acid]
[1]
  TI = CC50/EC50: 1.4 ×10^3 and 1,389

## C=C(C)[C@@H]1CC[C@]2(C(=O)NCCCCCCCC(=O)O)CC[C@]3(C)[C@H](CC[C@@H]4[C@@]5(C)CC[C@H](O)C(C)(C)[C@@H]5CC[C@]43C)[C@@H]12 [Compound 23, N-[3β-Hydroxy-lup-20(29)-en-28-oyl]-8-aminooctanoic acid]
[4]
  Persentage of Remaining Parent Compounds (X±SD)%: 100.0%

## C=C(C)[C@@H]1CC[C@]2(C(=O)N3CCC(CCCC(=O)NCCN4CCOCC4)CC3)CC[C@]3(C)[C@H](CC[C@@H]4[C@@]5(C)CC[C@H](OC(=O)CC(C)(C)C(=O)O)C(C)(C)[C@@H]5CC[C@]43C)[C@@H]12 [Compound 47, N’-[N-[3β-O-(3′,3′-Dimethylsuccinyl)-lup-20(29)-en-28-oyl]-4-piperidine-butanoyl]-2-aminoethylmorpholine]
[1]
  TI = CC50/EC50: 2,473

## C=C(C)[C@@H]1CC[C@]2(C(=O)N[C@@H](CC(C)C)C(=O)O)CC[C@]3(C)[C@H](CC[C@@H]4[C@@]5(C)CC[C@H](O)C(C)(C)[C@@H]5CC[C@]43C)[C@@H]12 [Compound 22, N-[3β-Hydroxy-lup-20(29)-en-28-oyl]-leucine]
[1]; HIV-1IIIB infected MT-2 cells, averages of at least three experiments
  EC50: concentration that inhibits HIV-1IIIB replication by 50%: did not exhibit antiviral replication activity

## C=C(C)[C@@H]1CC[C@]2(C(=O)N3CCC(CCCC(=O)NC)CC3)CC[C@]3(C)[C@H](CC[C@@H]4[C@@]5(C)CC[C@H](OC(=O)CC(C)(C)C(=O)O)C(C)(C)[C@@H]5CC[C@]43C)[C@@H]12 [Compound 45, N’-[N-[3β-O-(3′,3′-Dimethylsuccinyl)-lup-20(29)-en-28-oyl]-4-piperidine-butanoyl]-aminomethane]
[2]
  TI = CC50/EC50: > 41.7
